pIC50: −log10 of the molar value.
Experiments:
[1] = system: UBE3A-AS; experiment: UBE3A-AS steady state RNA dose response in Angelman syndrome iPSC-derived neurons; assay type: cell-based, human; conditions: for pIC50: six days following treatment, 10-point dose curve, read-out: potency (IC50), UBE3A-AS
Experimental: The steady state RNA levels of target transcripts were measured using TaqMan quantitative reverse-transcription PCR (qRT-PCR) assays. Total reaction volume was 10 uL, including 2 μl of cDNA, 1× Gene Expression Master mix (4369016, Thermo Fisher Scientific, Waltham, Mass.), and 1× TaqMan primer assay (Thermo Fisher Scientific). Cycling conditions were 2 minutes at 50° C., 10 minutes at 95° C., and 40 cycles of 15 seconds at 95° C. and 1 minute at 60° C., with readings taken at the 60° C. step of every cycle. Reactions were run on a BIO-RAD T1000 CFX96 thermocycler (Bio-Rad Laboratories, Hercules Calif.), with internal control (PPIA, Hs99999904_m1, Thermo Fisher Scientific) and target [UBE3A-AS, Hs01372957_m1; SNORD116-11, Hs04275268_gH; SNORD115, Hs04275288_gH; IPW, Hs03455409_s1; SNORD109A/B, AP47WVR (Thermo Fisher Scientific); UBE3A: forward […] (SEQ ID NO:500); reverse: […] (SEQ ID NO:501); and, probe: […] (SEQ ID NO:502)] reactions performed together. Data was retrieved and analyzed with the BIORAD CFX Maestro software (Bio-Rad Laboratories). Samples with internal control Cq values ≥30 were filtered. Quality of data was visually inspected to identify discrepancies between technical and/or plate replicates. Measurements for inferential statistics and descriptive statistics consist of ΔΔCq values (2^−ΔΔCq=2^−(Cq[target]−Cq[internal control])−(Cq[target]−Cq[internal control])).
The potencies of […] and ASO-4.4.PS.L were then examined in iPSC derived-neurons from an Angelman syndrome patient with a maternal derived deletion of the 15q11-q13 region. Induced pluripotent stem cells were differentiated into neurons and then treated with a 10-point ½ log dose response curve of ASO-6.1.PO-1.O and ASO-4.4.PS.L [1 nM, 3 nM, 10 nM, 30 nM, 100 nM, 300 nM, 1 μM, 3 μM, 10 μM, and 30 μM (n=3)]. Six days following treatment, the steady state RNA levels of UBE3A-AS were measured and dose response curves were fitted as described above (FIG. 9A). […] The Emax values were similar (30 μM: ASO-4.4.PS.L=0.01±0.0007; ASO-6.1.PO-1.O=0.05±0.004) but not considered equivalent due to the confidence intervals [ASO-6.1.PO-1.O/ASO-4.4.PS.L Emax ratio: =−9.1 (Lower confidence limit=−224; Upper confidence limit=205)].
Angelman syndrome induced pluripotent stem cells derived neurons Angelman syndrome iPS cells (AG1-0 iPSCs) (ECN001, Kerafast, Boston, Mass.) were co-cultured on irradiated murine embryonic fibroblasts in human embryonic stem cell medium [DMEM/F12 (11330-057, Gibco Biosciences, Dublin, Ireland), 20% Knockout Serum Replacement (10828-028, Thermo Fisher Scientific), 1× Non-essential amino acids, 2 mM L-glutamine, […] 2-Mercaptoethanol, and 4 μg/mL basic Fibroblast Growth Factor]. For the first passage, AG1-0 cells were passaged according to the product manual for PluriSTEM Human ES/iPS Medium (SCM130, Millipore Sigma, Burlington, Mass.), which is feeder-free and utilizes Dispase II (SCM133, Millipore Sigma) to dissociate cells. Matrigel™ hESC-qualified Matrix (354277, Corning BD Biosciences, Corning, N.Y.) was used as an extracellular matrix. At the second passage, the matrix was switched to vitronectin (CC130, Millipore Sigma). During subsequent passages, areas of differentiation were manually removed until differentiated cells represented approximately <5% of the colonies. After four subsequent passages, AG1-0 cells were differentiated using the Millipore ES/iPS Neurogenesis Kit (SCR603, SCM110, and SCM111) but lacking vitronectin as an extracellular matrix. The initial passage was performed with EZ-LiFT (SCM139, Millipore Sigma) to obtain high quality iPS cells. Neural progenitor cells were frozen at stage zero (P0) and subsequently thawed for differentiation. Differentiation was performed on sterile culture plates coated with poly-D-lysine (10 μg/mL) and laminin [10 μg/mL (23017-015, Gibco) in differentiation medium (SCM111) for 10 days of differentiation. […]

[2] = system: UBE3A; experiment: UBE3A steady state RNA (qRT-PCR) in glutamatergic iPSC-derived neurons; assay type: cell-based, human; conditions: 14 DIV to 20 DIV, 10-point dose curve
Experimental: ASO-4 and ASO-6.1 were also examined in glutamatergic iPSC-derived neurons. Glutamatergic iPSC-derived neurons were treated at 14 DIV with a 10-point ½ log dose response curve of ASO-4 and ASO-6.1 [1 nM, 3 nM, 10 nM, 30 nM, 100 nM, 300 nM, 1 μM, 3 μM, 10 μM, and 30 μM (n=3)]. At 20 DIV, the IC50 and Emax of each ASO was estimated as described above (FIG. 5E-F and Table 15).
GABAergic and glutamatergic induced pluripotent stem cell (iPSC) derived neural precursor cells (NRC-100-010-001 and GNC-301-030-001, Cellular Dynamics International, Madison Wis.) were differentiated into neurons according to the manufactures protocol. Briefly, neural precursor cells were thawed and resuspended in chemically defined medium and added to sterile-culture plates coated with poly-D-lysine and laminin. The medium was replaced 24 hr after plating and then one-half of the medium was replaced every 3-5 days afterwards. […]
The steady state RNA levels of target transcripts were measured using TaqMan quantitative reverse-transcription PCR (qRT-PCR) assays. […] Cycling conditions were 2 minutes at 50° C., 10 minutes at 95° C., and 40 cycles of 15 seconds at 95° C. and 1 minute at 60° C., with readings taken at the 60° C. step of every cycle. […] Data was retrieved and analyzed with the BIORAD CFX Maestro software (Bio-Rad Laboratories). […]

Row | Substance | fold more potent than ASO-6.1.PO-1.O [1] | Emax, normalized UBE3A-AS RNA level at 30 μM [1] | pIC50 [1] | effect on UBE3A RNA levels (in words) [2] | ASO-6.1.PO-1.O/ASO-4.4.PS.L Emax ratio ([1]; equivalence test) | ASO-6.1.PO-1.O/ASO-4.4.PS.L IC50 ratio ([1]; equivalence test)
1 | A^L*G^L*A^L*a*t*g*g*c*a*c*a*t*c*t*5mC^L*T^L*T^L*G^L (NNNATGGCACATCTNNNN; LNA gapmer, PS, 5-methylcytosine, chemistry not fully specified) [ASO-4.4.PS.L] | approximately 2.7 fold | 0.01±0.0007 | 6.36 |  |  | 
2 | C^O*U^O*G^O*G^O*t*g*t*c*a*a*c*a*a*g*C^O*C^O*A^O*A^O [ASO-6.1] |  |  |  | increased UBE3A RNA levels in a dose dependent manner |  | 
3 | C^O*U^O*G^O*G^O-t*g*t*c*a*a*c*a*a*g-C^O*C^O*A^O*A^o [ASO-6.1.PO-1.O] |  | 0.05±0.004 | 5.91 |  | −9.1 | 0.96
4 | U^O*A^O*G^O*A^O*A^O*t*g*g*c*a*c*a*t*c*t*C^O*U^O*U^O*G^O*G^O [ASO-4] |  |  |  | increased UBE3A RNA levels in a dose dependent manner |  | 

Reference: patent US11198869B2, “Angelman syndrome antisense treatment” (The Texas A&M University System, priority 2017, dated 2021)
